Converted amounts (≈) assume the structure as drawn. “Also recorded” adds a separate entry of the source. Read-outs that look alike come from different tables or passages of the source.
Experiments:
[1] = system: polychromatic erythrocytes (PCEs); test: Micronucleus test, bone marrow of mice; type: in vivo, BDF 1 mice; conditions: percent of the number of MNPCEs per 1,000 PCEs; 250 mg/kg i.p., 24 h
Experimental: Nine-week-old male BDF 1 mice were used in this test. The test compounds were injected intraperitoneally with a dose of 250 mg/kg. After 24 h mice were sacrificed and the bone marrow of the femur was collected. Bone marrow smears were fixed on the slides with methanol and stained with Giemsa according to the usual method. For each animal, the number of micronucleated polychromatic erythrocytes (MNPCEs) per 1,000 polychromatic erythrocytes (PCEs) was counted under the microscope. Cyclophosphamide was used as a positive control.

A. calcoaceticus HNR939 = test: Antibacterial activity, MIC by agar dilution; type: cell-based; conditions: Acinetobacter calcoaceticus, clinically isolated strain, gram -
Excerpt: (§1) The strains employed were as follows:
(§2) Acinetobacter calcoaceticus (A. calcoaceticus)

A. calcoaceticus HNR916 = test: Antibacterial activity, MIC by agar dilution; type: cell-based; conditions: Acinetobacter calcoaceticus, clinically isolated strain, gram -
Excerpt: as §1, §2

A. calcoaceticus HNR904 = test: Antibacterial activity, MIC by agar dilution; type: cell-based; conditions: Acinetobacter calcoaceticus, clinically isolated strain, gram -
Excerpt: as §1, §2

E. faecalis HPC948 = test: Antibacterial activity, MIC by agar dilution; type: cell-based; conditions: Enterococcus faecalis, clinically isolated strain, gram +
Excerpt: as §1
(§3) Enterococcus faecalis (E. faecalis)

E. faecalis HPC984 = test: Antibacterial activity, MIC by agar dilution; type: cell-based; conditions: Enterococcus faecalis, clinically isolated strain, gram +
Excerpt: as §1, §3

E. faecalis HPC975 = test: Antibacterial activity, MIC by agar dilution; type: cell-based; conditions: Enterococcus faecalis, clinically isolated strain, gram +
Excerpt: as §1, §3

E. cloacae HNR1939 = test: Antibacterial activity, MIC by agar dilution; type: cell-based; conditions: Enterobacter cloacae, clinically isolated strain, gram -
Excerpt: as §1
(§4) Enterobacter cloacae (E. cloacae)

E. cloacae 963 = test: Antibacterial activity, MIC by agar dilution; type: cell-based; conditions: Enterobacter cloacae, laboratory standard strain, gram -
Excerpt: as §1, §4

E. cloacae HNR1946 = test: Antibacterial activity, MIC by agar dilution; type: cell-based; conditions: Enterobacter cloacae, clinically isolated strain, gram -
Excerpt: as §1, §4

E. cloacae HNR1941 = test: Antibacterial activity, MIC by agar dilution; type: cell-based; conditions: Enterobacter cloacae, clinically isolated strain, gram -
Excerpt: as §1, §4

S. marcescens HNR1544 = test: Antibacterial activity, MIC by agar dilution; type: cell-based; conditions: Serratia marcescens, clinically isolated strain, gram -
Excerpt: as §1
(§5) Serratia marcescens (S. marcescens)

S. marcescens IAM 1184 = test: Antibacterial activity, MIC by agar dilution; type: cell-based; conditions: Serratia marcescens, IAM1184; laboratory standard strain, gram -
Excerpt: as §1, §5

S. marcescens HNR1792 = test: Antibacterial activity, MIC by agar dilution; type: cell-based; conditions: Serratia marcescens, clinically isolated strain, gram -
Excerpt: as §1, §5

S. marcescens HNR1767 = test: Antibacterial activity, MIC by agar dilution; type: cell-based; conditions: Serratia marcescens, clinically isolated strain, gram -
Excerpt: as §1, §5

K. pneumoniae HNR828 = test: Antibacterial activity, MIC by agar dilution; type: cell-based; conditions: Klebsiella pneumoniae, clinically isolated strain, gram -
Excerpt: as §1
(§6) Klebsiella pneumoniae (K. pneumoniae)

K. pneumoniae HNR869 = test: Antibacterial activity, MIC by agar dilution; type: cell-based; conditions: Klebsiella pneumoniae, clinically isolated strain, gram -
Excerpt: as §1, §6

K. pneumoniae HNR858 = test: Antibacterial activity, MIC by agar dilution; type: cell-based; conditions: Klebsiella pneumoniae, clinically isolated strain, gram -
Excerpt: as §1, §6

K. pneumoniae PCI-602 = test: Antibacterial activity, MIC by agar dilution; type: cell-based; conditions: Klebsiella pneumoniae, PCI602; laboratory standard strain, gram -
Excerpt: as §1, §6

[2] = system: clinically isolated strains (HPC527, HPC308 and HPC292) of S aureus; test: Comparison with analogous compounds: antibacterial activity (MIC) against clinically isolated strains of S. aureus; type: cell-based, Staphylococcus aureus; conditions: comparison to Tables 7 and 8
Experimental: Minimum inhibitory concentrations (MICs) of test compounds were determined by agar dilution procedure as described in the standard method of the Japan Society of Chemotherapy (Chemotherapy (Tokyo), 29,1, 76 (1981)). The strains employed were as follows:
All the data of the antibacterial activity, chromosomal aberration activity, phototoxicity and inducement of convulsions were obtained from the same tests methods as those described above. Among this, the data of the antibacterial activity shown in Tables 7 and 8 are MICs (minimum inhibitory concentrations) value against clinically isolated strains (HPC527, HPC308 and HPC292) of S aureus which is a representative gram-positive bacteria.

CHL cells [3] = test: Chromosomal aberration test with a Chinese hamster lung cell line (CHL); type: cell-based
Experimental: The chromosomal aberration test was conducted with a Chinese hamster lung cell line (CHL). 2-(2-Furyl)-3-(5-nitro-2-furyl)acrylamide was used as a positive control. Cells treated with the test compounds were cultured for 6 h at 37° C. in 5% CO2 -humidified air. Following the 6 h treatment the cells were washed. Fresh medium was added to the washed cells and they were cultured for a further 18 h. Colcemide was added to the cultures 2 h before the fixation of chromosome preparation, in order to collect metaphase cells.

[4] = Tissue distribution after oral administration, HPLC; type: in vivo, Sprague-Dawley rats; conditions: for Kp: po, 5 mg/kg
Experimental: Seven-week-old male Sprague-Dawley rats were used. The test compounds were orally administered at a dose of 5 mg/kg to rats fasted overnight. At intervals of 0.083, 0.25, 0.5, 1, 2, 4, 6, 8, 12 and 24 h after administration, the rats were anesthetized with ether and blood samples were taken from the abdominal aorta. Plasma samples were obtained from the blood samples in the usual way. The lungs and kidneys were removed after collection of blood, and homogenated with 4 ml and 7 ml of 1 M HCl-citrate buffer (pH 4.0), respectively.
The concentration of the test compounds in the biological fluids (plasma and in each tissue tested) was determined by HPLC method. Hydrochloric acid and ether were added to 0.5 ml of plasma or 0.5 g of each tissue homogenate. The mixture was shaken and centrifuged. After the removal of the organic phase, aq. NaOH solution, phosphate buffer (pH 7.0) and chloroform were added to the aqueous phase. The mixture was shaken and centrifuged. The organic phase was then concentrated. The residue was dissolved and subjected to HPLC. The concentration of the test compounds in each biological fluid at Tmax (time of the maximum concentration in plasma) is shown in Table 6.

Male Hartley guinea pigs = type: in vivo; conditions: 10 mg/kg i.v.; for Phototoxicity: number of animals with erythemas/number of animals tested: UVA 90 minutes, 24 h after irradiation; for phototoxicity, in words: UVA
Experimental: Male Hartley guinea pigs were intravenously administered test compounds at a dose of 10 mg/kg, and immediately exposed to UVA on their backs for 90 minutes.

S. aureus FDA 209P JC-1 = test: Antibacterial activity, MIC by agar dilution; type: cell-based; conditions: Staphylococcus aureus, FDA209P; laboratory standard strain, gram +
Excerpt: as §1
(§7) Staphylococcus aureus (S. aureus)

S. aureus HPC308 = test: Antibacterial activity, MIC by agar dilution; type: cell-based; conditions: Staphylococcus aureus, clinically isolated strain, gram +
Excerpt: as §1, §7

S. aureus HPC292 = test: Antibacterial activity, MIC by agar dilution; type: cell-based; conditions: Staphylococcus aureus, clinically isolated strain, gram +
Excerpt: as §1, §7

S. aureus HPC527 = test: Antibacterial activity, MIC by agar dilution; type: cell-based; conditions: Staphylococcus aureus, clinically isolated strain, gram +
Excerpt: as §1, §7

E. coli NIHJ JC-2 = test: Antibacterial activity, MIC by agar dilution; type: cell-based; conditions: Escherichia coli, NIHJJC2; laboratory standard strain, gram -
Excerpt: as §1
Escherichia coli (E. coli)

CHL cells [5] = conditions: 31th ICAAC, Abstract No. 1507 (1991); cited from earlier work
[6] = times higher than ciprofloxacin, at Tmax

SMILES | Incidence of MNPCEs [1] | MIC (A. calcoaceticus HNR939) | MIC (A. calcoaceticus HNR916) | MIC (A. calcoaceticus HNR904) | MIC (E. faecalis HPC948) | MIC (E. faecalis HPC984) | MIC (E. faecalis HPC975) | MIC (E. cloacae HNR1939) | MIC (E. cloacae 963) | MIC (E. cloacae HNR1946) | MIC (E. cloacae HNR1941) | MIC (S. marcescens HNR1544) | MIC (S. marcescens IAM 1184) | MIC (S. marcescens HNR1792) | MIC (S. marcescens HNR1767) | MIC (K. pneumoniae HNR828) | MIC (K. pneumoniae HNR869) | MIC (K. pneumoniae HNR858) | MIC (K. pneumoniae PCI-602) | toxicity (chromosomal aberration), in words (CHL cells [3]) | further results
Cc1c(N2C[C@@H](N)C3(CC3)C2)c(F)c(N)c2c(=O)c(C(=O)O)cn(C3CC3)c12 [Example 10, 5-Amino-7-((S)-7-amino-5-azaspiro[2.4]hept-5-yl)-1-cyclopropyl-6-fluoro-1,4-dihydro-8-methyl-4-oxoquinoline-3-carboxylic acid] | 0.18% | 0.2 µg/mL (≈ 0.518 µM) | 0.012 µg/mL (≈ 0.0311 µM) | 1.56 µg/mL (≈ 4.04 µM) | 0.39 µg/mL | 0.1 µg/mL | 1.56 µg/mL | 0.1 µg/mL (≈ 0.259 µM) | 0.025 µg/mL (≈ 0.0647 µM) | 0.2 µg/mL (≈ 0.518 µM) | 3.13 µg/mL (≈ 8.1 µM) | 0.05 µg/mL (≈ 0.129 µM) | 0.1 µg/mL (≈ 0.259 µM) | 3.13 µg/mL (≈ 8.1 µM) | 6.25 µg/mL (≈ 16.2 µM) | 3.13 µg/mL (≈ 8.1 µM) | 1.56 µg/mL (≈ 4.04 µM) | 0.2 µg/mL (≈ 0.518 µM) | 0.003 µg/mL (≈ 0.00776 µM) | did not show | antibacterial activity compared with reference compound, in words [2]: higher antibacterial activity than the analogous reference compound B; also recorded: excellent antibacterial activity as potent as the analogous reference compound C; also recorded: much higher antibacterial activity than the analogous reference compound I; Tmax ([4]; plasma, rat, 5 mg/kg oral): 15 min; Cmax ([4]; plasma, rat, 5 mg/kg oral, read-out: Concentration in plasma at Tmax): 580 ng/mL; Concentration in kidney at Tmax ([4]; rat, 5 mg/kg oral): 8.5 µg/g; Concentration in lung at Tmax ([4]; rat, 5 mg/kg oral): 4.0 µg/g; Kp ([4]; rat, kidney, read-out: concentration ratio (tissue/plasma), kidney): 15; Kp ([4]; rat, lung, read-out: concentration ratio (tissue/plasma), lung): 6.9; a/b: concentration ratio (tissue/plasma) kidney, Example 10/ciprofloxacin [4, 6]: 4.2; a/b: concentration ratio (tissue/plasma) lung, Example 10/ciprofloxacin [4, 6]: 8.6; a/b: kidney concentration, Example 10/ciprofloxacin [4, 6]: 7.4; a/b: lung concentration, Example 10/ciprofloxacin [4, 6]: 16; Phototoxicity: number of animals with erythemas/number of animals tested (Male Hartley guinea pigs): 0/5; MIC (S. aureus FDA 209P JC-1): 0.025 µg/mL; MIC (S. aureus HPC308): 0.39 µg/mL; MIC (S. aureus HPC292): 1.56 µg/mL; MIC (S. aureus HPC527): 0.025 µg/mL; MIC (E. coli NIHJ JC-2): 0.012 µg/mL (≈ 0.0311 µM)
Cc1c(N2CC[C@H](N)C2)c(F)c(N)c2c(=O)c(C(=O)O)cn(C3CC3)c12.Cl [Example 12, 5-Amino-7-((S)-3-amino-1-pyrrolidinyl)-1-cyclopropyl-6-fluoro-1,4-dihydro-8-methyl-4-oxoquinoline-3-carboxylic acid hydrochloride] | 0.16% | 0.78 µg/mL | 0.05 µg/mL | 12.5 µg/mL | 0.39 µg/mL | 0.1 µg/mL | 1.56 µg/mL | 0.2 µg/mL | 0.025 µg/mL | 0.2 µg/mL | 6.25 µg/mL | 0.05 µg/mL | 0.1 µg/mL | 1.56 µg/mL | 12.5 µg/mL | 3.13 µg/mL | 1.56 µg/mL | 0.2 µg/mL | 0.006 µg/mL | did not show | antibacterial activity compared with reference compound, in words ([2]; hydrochloride): much higher antibacterial activity than the analogous reference compound E; also recorded: higher antibacterial activity than the analogous reference compound F; also recorded: much higher antibacterial activity than the analogous reference compound I; phototoxicity, in words (Male Hartley guinea pigs): did not show; Phototoxicity: number of animals with erythemas/number of animals tested (Male Hartley guinea pigs): 0/5; MIC (S. aureus FDA 209P JC-1): 0.025 µg/mL; MIC (S. aureus HPC308): 0.78 µg/mL; MIC (S. aureus HPC292): 1.56 µg/mL; MIC (S. aureus HPC527): 0.025 µg/mL; MIC (E. coli NIHJ JC-2): 0.025 µg/mL
Cc1c(N2C[C@@H](N)C3(CC3)C2)c(F)cc2c(=O)c(C(=O)O)cn(C3CC3)c12 [Reference Compound C, 7-((S)-7-amino-5-azaspiro[2.4]hept-5-yl)-1-cyclopropyl-6-fluoro-1,4-dihydro-8-methyl-4-oxoquinoline-3-carboxylic acid] | – | – | – | – | – | – | – | – | – | – | – | – | – | – | – | – | – | – | – | observed | chromosomal aberrational activity, in words (CHL cells [5]): potent chromosomal aberrational activity; phototoxicity, in words (Male Hartley guinea pigs): no phototoxicity; death of guinea pigs (Male Hartley guinea pigs; phototoxicity test): death of one guinea pig out of five

From patent publication US5547962A, “5-amino-8-methyl-7-pyrrolidinylquinoline-3-carboxylic acid derivative” (priority 1993, dated 1996)
